Laboratory results from publication PMC3280214, “Structure Based Discovery of Small Molecules to Regulate the Activity of Human Insulin Degrading Enzyme” (PLoS ONE, 2012).
pEC50: −log10 of the molar value. Entries after “also recorded” stand apart in the source; their conditions may differ.

Assays:
HeLa cells [1] = assay: Cell-based degradation of FITC-insulin; parameters: species or system human
Experimental: It was shown that HeLa cells express insulin receptor, and thus take FITC-labeled insulin inside and degrade it intracellularly, [21], [22]. First, FITC-insulin was added to the culture that contains HeLa cells and incubated for 2 hours in order to allow for sufficient uptake of FITC-insulin by HeLa cells. In order to ensure that FITC-labeled insulin is translocating into the cells through insulin uptake receptor, and that cytoplasmic IDE can degrade FITC- insulin, we conducted live cell imaging of HeLa cells, and recorded fluorescence. At various time points compounds, D3, D6, and D10, were added; and cells were washed with Hank's balanced salt solution (HBSS), the these cells were collected and lysed with appropriate buffer. After centrifugation, cell free extracts were used to measure the change in fluorescence by luminometer. […] Compound D10 increased in vivo proteolysis of FITC- insulin by about 32 fold with HeLa cells compared to control group (Fig. 3A). […] These findings are consistent with the data obtained by in vitro assay, showing enhanced degradation of insulin by D10 and D3 (Fig. 3A). […] This figure further verifies the significant increase in fluorescence observed in the presence of compound D10, which is consistent with our in vitro assay (Fig. 3B).
Cells were cultured at 37°C under a humidified atmosphere of 5% CO2 in medium supplemented with 10% fetal bovine serum. Then, FITC-insulin was added to cell medium and incubated for 2 h at 37°C. Next, compounds were loaded at different time intervals separately. Cells were washed with Hank's balanced salt solution (HBSS), then disrupted with 1× passive lysis buffer. Fluorescence was measured with a luminescence multi-label plate leader, and changes in fluorescence was imaged by fluorescence microscope at Burc Laboratory (Istanbul, Turkey).

HeLa cells [2] = assay: MTT assay for cell viability; type: cell-based, human
From the text: We characterized the activity of novel compounds in a cellular assay to establish whether there were any cytotoxic effects. We used an established MTT (3-(4,5-dimethylthiazolyl-2)-2, 5-diphenyltetrazolium bromide or thiazolyl blue) method using HELA cells to determine whether the small molecule affects cell viability. In this method, a purple formazan dye forms as a result of the cleavage of the yellow tetrazolium MTT within metabolically active cells. The resulting precipitate of the intracellular formazan can be dissolved in a detergent solution and quantified spectrophotometrically at 595 nm. We measured the cytotoxicity by incubating HELA cells in the presence of novel compounds at concentrations ranging from 1 to 100 µM for 24 h. Cell viability was measured using the MTT method after […] culture. The extent of cell death was expressed relative to a control containing DMSO. […] Therefore, as a next step we tested the effects of lead compounds on insulin catabolism using HeLa cells.
The cytotoxicity assay was performed using human cervical cancer HeLa cells. Cells were cultured at 37°C under a humidified atmosphere of 5% CO2 in medium supplemented with 10% fetal bovine serum and dispersed in replicate 96-well plates with 2.5×10^4 cells/well. Compounds were then added. After 24 hours exposure to the chemical compounds, the cell viability was determined by 3-[4,5-dimethylthiazol-2-yl]-2,5-diphenpyltetrazolium bromide (MTT) assay. The optical density (OD) of the wells was determined using ELISA plate reader at a test wavelength of 600 nm and a reference wavelength of 630 nm. Each measurement was carried out in triplicate.

IDE [3] = biological target: T1, IDE (Homo sapiens, UniProt P14735); assay: FAβB (amyloid-β) degradation assay; type: biochemical
T1 construct: made in house; host or cells: E. coli BL21
T1 sequence (P14735 1-1019): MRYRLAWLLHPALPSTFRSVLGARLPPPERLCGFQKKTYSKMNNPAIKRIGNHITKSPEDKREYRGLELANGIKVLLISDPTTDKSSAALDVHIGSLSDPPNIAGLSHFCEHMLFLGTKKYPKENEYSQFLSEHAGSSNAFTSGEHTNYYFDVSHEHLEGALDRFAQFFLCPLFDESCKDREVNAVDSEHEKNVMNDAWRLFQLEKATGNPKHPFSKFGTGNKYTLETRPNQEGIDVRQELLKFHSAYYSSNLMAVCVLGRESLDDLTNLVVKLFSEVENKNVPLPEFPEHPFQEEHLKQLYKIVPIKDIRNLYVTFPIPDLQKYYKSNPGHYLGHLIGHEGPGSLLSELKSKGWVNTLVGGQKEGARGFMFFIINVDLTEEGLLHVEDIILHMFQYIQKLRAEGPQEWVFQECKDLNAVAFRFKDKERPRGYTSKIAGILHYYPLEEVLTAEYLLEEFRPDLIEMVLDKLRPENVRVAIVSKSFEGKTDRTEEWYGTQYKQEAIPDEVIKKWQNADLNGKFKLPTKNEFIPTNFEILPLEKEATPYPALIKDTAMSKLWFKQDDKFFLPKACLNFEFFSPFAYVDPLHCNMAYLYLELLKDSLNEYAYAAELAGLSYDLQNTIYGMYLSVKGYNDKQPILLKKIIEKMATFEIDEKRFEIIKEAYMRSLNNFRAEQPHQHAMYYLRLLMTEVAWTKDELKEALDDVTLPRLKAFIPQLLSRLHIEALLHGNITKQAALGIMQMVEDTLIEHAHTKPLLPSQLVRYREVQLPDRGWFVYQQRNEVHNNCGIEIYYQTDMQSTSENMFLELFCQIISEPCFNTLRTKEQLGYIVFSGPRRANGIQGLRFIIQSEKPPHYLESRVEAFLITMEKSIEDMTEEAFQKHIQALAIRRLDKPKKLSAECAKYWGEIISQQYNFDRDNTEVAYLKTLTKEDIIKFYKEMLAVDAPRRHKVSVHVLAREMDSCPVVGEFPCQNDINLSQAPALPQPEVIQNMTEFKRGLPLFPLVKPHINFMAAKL
Experimental: The 10 compounds given in Table 1 were subjected to further characterization and their effect was measured on the proteolytic activity of IDE using different substrates. Initially, activity assays were carried out at fixed 20 µM concentrations for all molecules to identify the effect of those compounds on IDE activity. IDE activity was quantified by monitoring the change in fluorescence for the proteolysis of fluorogenic-substrate V, FITC- insulin-bound antibody, and FAβB by recombinant human IDE purified from E.coli BL21 [6], [18], [19]. […] Also, D6 increased the amyloid-β degradation by 20% (Fig. S1C). Further, D10 enhanced IDE-mediated FITC-insulin-mAb and substrate V degradation by 290% and 65%, respectively (Fig. S1A, B). Next, an EC50 value of each molecule that enhanced IDE activity was determined with a dose response assay, where specific activity of IDE was measured with different concentrations of the lead compounds and then the plot was fit to Sigmoidal Hill-4 parameter equation. […] EC50 value for D3 on insulin degradation was approximately measured as 20 µM (Fig. S2C), whereas EC50 value for D6 on amyloid-β degradation was 2 µM (Fig. S2D). […] Among all these four compounds, D10 seems to be the potent activator of IDE, when proteolysis of insulin is considered.
This assay was performed as follows: 10 µl of 50 nM of FAβB was dissolved in a buffer which consisted of 50 mM HEPES, 100 mM NaCl, % 0,05 (v/v) bovine serum albumin, at a pH of 7.4. The reaction was initiated in a total volume of 100 µl with 20 µM drugs by adding 20 µl of 0.02 mg/ml of IDE for 2.5 h at 37°C. The reaction was stopped by adding 2 µl of 100 mM of protease inhibitor (1, 10-phenanthroline). Uncleaved FAβB was precipitated with Neutravidin- coated agarose beads by gentle rocking for 30 min. and centrifugation for 10 min at 14000 g. The supernatant was transferred to the black 96 well plates and increase in fluorescence (488 excitation, 525 emission) was measured with a multi-label plate reader.
The effect of the lead compounds on the initial rate of proteolysis of IDE was determined by measurement in fluorescence with time both in the presence and absence of the lead compounds. The kinetic data for IDE-mediated insulin, substrate V and amyloid-β degradation were plotted and fitted using SigmaPlot software (Sigmoidal, Hill, 4 parameter). For the initial rate calculations, kinetic data were fitted using SigmaPlot software (Hyperbola; Single Rectangular I, 3 Parameter).

IDE [4] = details: bradykinin as IDE substrate; cited from earlier work

| Compound | effect on insulin catabolism in HeLa cells (HeLa cells [1]; HeLa cells pre-loaded with FITC-insulin) | permeability through cell membrane (HeLa cells [1]; inferred from HeLa cell assay) | cytotoxicity at EC50 value (HeLa cells [2]; 2 µM) | cytotoxicity at high concentrations (HeLa cells [2]; 1 to 100 µM, 24 h) | increase of IDE-mediated amyloid-β degradation (IDE [3]; 20 µM compound) [%] | effect of ATP on amyloid-β degradation in presence of compound (IDE [3]; ATP, data not shown) | pEC50 (IDE [3]; dose response, Sigmoidal Hill 4 parameter fit) | acceleration of initial rate of amyloid-β proteolysis (IDE [3]; presence vs absence of compound) [factor] | Km (IDE [4]) [mM] |
| --- | --- | --- | --- | --- | --- | --- | --- | --- | --- |
| O=[N+]([O-])c1cc(Cn2c(-c3ccc(Cl)c([N+](=O)[O-])c3)nc3ccccc32)ccc1Cl [Compound D6] | no effect on insulin catabolism; also recorded: does not change insulin degradation | permeable through cell membrane | not toxic | showed toxicity at higher concentrations | 20 | no effect | 5.70 | 1.3 | – |
| bradykinin (RPPGFSPFR; Bradykinin; UniProt P01042 381-389, looked up) | – | – | – | – | – | – | – | – | 4.2 |
